Reference: ChEMBL document CHEMBL1201862, “PubChem BioAssay data set” (2004)
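Step 1: Grow cells in 96-well plates. Step 2: Expose to compound for 48 hours at 5 concentrations. Step 3: Interpolate endpoints linearly; if unreached, use highest concentration. GI50 marks 50% less growth.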 Active and inactive are the calls of the source. Rule as the data show it: active = GI50 up to about 1.1 µM and inactive = higher.

Tests used:
Assay in all cases: inhibition of tumour cell growth, NCI panel, 48 h
COLO 205 = system: COLO 205
MCF7 = system: MCF7
SF-268 = system: SF-268
NCI/ADR-RES = system: NCI/ADR-RES
UACC-62 = system: UACC-62
MOLT-4 = system: MOLT-4
TK-10 = system: TK-10
Malme-3M = system: Malme-3M
HOP-62 = system: HOP-62
ACHN = system: ACHN
MDA-N = system: MDA-N
SK-MEL-28 = system: SK-MEL-28
K562 = system: K562
SK-MEL-2 = system: SK-MEL-2
NCI-H522 = system: NCI-H522
PC-3 = system: PC-3
NCI-H226 = system: NCI-H226
SNB-75 = system: SNB-75
EKVX = system: EKVX
HL-60 = system: HL-60

Measured: GI50

COC(=O)C1C2C=CC(C2)N1S(=O)(=O)c1ccccc1 (stereo not given)
inactive: COLO 205 > 100 µM | MCF7 > 100 µM | SF-268 > 100 µM | NCI/ADR-RES > 100 µM | UACC-62 > 100 µM | MOLT-4 > 100 µM | TK-10 > 100 µM | Malme-3M > 100 µM | HOP-62 > 100 µM | ACHN > 100 µM | MDA-N > 100 µM | SK-MEL-28 > 100 µM | K562 > 100 µM | SK-MEL-2 > 100 µM | NCI-H522 > 100 µM | PC-3 > 100 µM

CC(=O)Nc1ccc2cc(C#N)c(=O)[nH]c2n1
inactive: NCI-H226 > 100 µM | COLO 205 > 100 µM | MCF7 > 100 µM | SF-268 > 100 µM | SNB-75 > 100 µM | NCI/ADR-RES > 100 µM | MOLT-4 > 100 µM | TK-10 > 100 µM | Malme-3M > 100 µM | HOP-62 > 100 µM | ACHN > 100 µM | MDA-N > 100 µM | SK-MEL-28 > 100 µM | K562 > 100 µM | SK-MEL-2 > 100 µM | NCI-H522 > 100 µM | PC-3 > 100 µM | EKVX > 100 µM

CCCC/C=C/C/C=C/CCCCCCCCC(=O)OCC1CCCN2CCCCC12 (stereo not given)
inactive: NCI-H226 > 100 µM | COLO 205 93.3 µM | MCF7 > 100 µM | SF-268 > 100 µM | HL-60 17.3 µM | SNB-75 > 100 µM | NCI/ADR-RES > 100 µM | UACC-62 48.6 µM | MOLT-4 > 100 µM | TK-10 > 100 µM | Malme-3M 87.5 µM | HOP-62 > 100 µM | ACHN > 100 µM | MDA-N > 100 µM | SK-MEL-28 > 100 µM | K562 > 100 µM | SK-MEL-2 > 100 µM | PC-3 > 100 µM | EKVX 54.6 µM

Nc1ncnc2c1ncn2C(=O)NC12CC3CC(CC(C3)C1)C2
inactive: NCI-H226 > 100 µM | COLO 205 > 100 µM | MCF7 > 100 µM | SF-268 > 100 µM | HL-60 > 100 µM | SNB-75 84.7 µM | NCI/ADR-RES > 100 µM | UACC-62 > 100 µM | MOLT-4 > 100 µM | TK-10 > 100 µM | Malme-3M > 100 µM | HOP-62 > 100 µM | ACHN > 100 µM | MDA-N > 100 µM | SK-MEL-28 > 100 µM | K562 > 100 µM | SK-MEL-2 > 100 µM | PC-3 > 100 µM | EKVX > 100 µM

O=C1C(=C2SC(c3ccccc3)(c3ccccc3)c3ccccc32)C(=O)c2ccccc21
inactive: NCI-H226 > 100 µM | COLO 205 > 100 µM | MCF7 > 100 µM | SF-268 > 100 µM | SNB-75 > 100 µM | NCI/ADR-RES > 100 µM | UACC-62 > 100 µM | MOLT-4 > 100 µM | TK-10 > 100 µM | Malme-3M > 100 µM | HOP-62 > 100 µM | ACHN > 100 µM | MDA-N > 100 µM | SK-MEL-28 > 100 µM | K562 > 100 µM | NCI-H522 > 100 µM | PC-3 82.4 µM | EKVX > 100 µM
